In patent US3984482A, “2-(Dihalobenzyl)-6-nitro-4-t-butylphenol and preparation thereof” (Institut de Recherches Chimiques et Biologiques Appliquees …, priority 1967, dated 1976) one finds inhibiting dilution, LD50 and MTD data, which are given here for eleven compounds.

Data set [1] relates to London staphylococcus. Briefly: Bacteriostatic activity in vitro by progressive dilution in culture broth, London staphylococcus. Type of data set: cell-based, Gram-positive London staphylococcus. The note with it: conditions under which the compounds of Formula I were tested. How it is done: The bacteriostatic activities in vitro of the compounds of Formula I were determined by comparing them with known products, particularly of analogous series. The activity was determined with respect to the specific Gram-positive London staphylococcus as a reference strain for all the compounds.
The test was carried out in a culture broth of the following formula: […]
Indole-free bacteriological peptone
Sodium chloride 5% by weight
The method used involved progressive dilution of the principle tested. The dilutions varied by thousandths between concentrations of one thousandth and one tenth of a thousandth, and by 10 thousandths for concentrations between one tenth of a thousandth and 1/100 of a thousandth, and by hundred thousandths for concentrations between 1/100 of a thousandth and one millionth. If the product was found active at a dilution of one millionth, a new range was made from millionth to millionth to beyond one millionth.
Two dilution series were made independently and the results of the two series must be identical. The readings were carried out after 24 hours.
The figure given in the table is that of the maximum dilution at which the growth of London staphylococcus is inhibited.

Data set [2] can be described thus: Acute toxicity per os in mice (LD 50, maximum tolerated dose). It counts as in vivo. The note with it: mouse, po; for LD50: read-out: Approximate LD 50; for MTD: read-out: Approximate maximum tolerated dose. How it is done:
The acute toxicity per os was determined in mice by the following method. Different doses of each compound were each tested on 10 mice, both male and female, weighing on average from 18 to 22 g; each dose was administered as a suspension in 10% gum arabic or olive oil and each mouse was given a uniform dose of 0.4 ml per 20 g weight of mouse with the aid of a probang.
The mice were starved for two hours before the experiment and the temperatures and behaviour of the animals were observed before the test and 11/2 and 3 hours after ingestion of the compound. After this time they were replaced in their cages and observed for several days.
The number of dead was counted daily and from this was deduced the lethal dose 50 (LD 50), the maxmum tolerated dose (MTD) and the minimum mortal dose MMD).

Read-outs that look alike come from different tables or passages of the source.

Regarding `Cc1ccc(O)cc1` [Para-cresol], in data set [1], the inhibiting dilution is 1/4000.

In the case of `CC(C)(C)c1ccc(O)c(Cc2ccc(Cl)cc2)c1` [Example 3, 2-(4'-chlorobenzyl)-4-t-butylphenol], the LD50 in data set [2] (solvent 10% gum) came out at 1900 mg/kg.

In the case of `Oc1ccccc1` [Phenol], in data set [1], the inhibiting dilution is on record as 1/1000. As for `CCC(C)c1ccc(O)c(Cc2ccc(Cl)c(Cl)c2)c1` (stereo not shown) [Example 8, 2-(3',4'-dichlorobenzyl)-4-s-butylphenol], in data set [2] (solvent olive oil), the LD50 came to 2400 mg/kg and the MTD came out at 1000 mg/kg.

As to `CC(C)(C)c1ccc(O)c(Cc2ccc(Cl)c(Cl)c2)c1` [Example 7, 2-(3',4'-dichlorobenzyl)-4-t-butylphenol], in data set [2] (solvent olive oil), the LD50 is 1500 mg/kg and the MTD was found to be 500 mg/kg. In the case of `CCC(C)c1ccc(O)c(Cc2ccc(Cl)cc2)c1` (stereo not shown) [Example 1, 2-(4'-chlorobenzyl)-4-sec-butylphenol], in data set [2] (solvent 10% gum), the LD50 came to 1000 mg/kg and the MTD worked out at 500 mg/kg. Turning to `CC(C)c1ccc(O)c(Cc2ccc(Cl)cc2Cl)c1` [Example 4, 2-(2',4'-dichlorobenzyl)-4-isopropylphenol], in data set [2] (solvent olive oil), the LD50 stood at 1700 mg/kg and the MTD amounted to 500 mg/kg. Turning to `CC(C)(C)c1cc(Cl)c(O)c(Cc2ccc(Cl)cc2Cl)c1` [Example 10, 2-(2',4'-dichlorobenzyl)-6-chloro-4-t-butylphenol], in data set [2] (solvent olive oil), the LD50 was 1500 mg/kg and the MTD came to 500 mg/kg. On the same counts, the results for `CC(C)(C)c1ccc(O)c(Cc2ccc(Cl)cc2Cl)c1` [Example 5, 2-(2',4'-dichlorobenzyl)-4-t-butylphenol] are 1700 mg/kg and 500 mg/kg. On the same counts, the results for `CC(C)(C)c1cc(Cl)c(O)c(Cc2ccc(Cl)c(Cl)c2)c1` [Example 9, 2-(3',4'-dichlorobenzyl)-6-chloro-4-t-butylphenol] are over 2500 mg/kg and 500 mg/kg.

Take `CC(C)c1ccc(O)c(Cc2ccc(Cl)cc2)c1` [Example 2, 2-(4'-chlorobenzyl)-4-isopropylphenol]: in data set [2] (solvent olive oil), the LD50 came to 1700 mg/kg and the MTD is 500 mg/kg.
